Experimental data reported in patent US20240269120A1, “Method for Treating an Autoimmune and Inflammatory Disease” (Cellestia Biotech AG, priority 2021, published 2024).
“And” between values parts separate entries of the source, which are not always exact repeats. Identical values can stand only once.

What was measured:
IFNG [1] = experiment: Cytokine profiling in human patient plasma (MSD): IFNG; format: in vivo; details: human patients, day 29 on treatment vs baseline pre-treatment
Method: Cytokine profiling in human plasma samples: Plasma samples from patients treated with 6-(4-tert-butylphenoxy)pyridin-3-amine were collected and stored at −80° C. until analysed. Cytokine and chemokine profiling was performed using MesoScale Discovery (MSD) platform and three assay panels: 1) Pro-inflammatory panel human, 2) Human IL-6 assay S-Plex, 3) Human IL-10 assay S-Plex.

[2] = tested on: NSG mice injected with human PBMCs (GvHD); experiment: Humanized GvHD mouse model, ex vivo treated human PBMCs, no in vivo treatment; set-up: GvHD clinical score: Body weight loss: dose or concentration left out as unconfirmed; details: day 21
Method: Humanized GvHD mouse model: 6-8 weeks old NSG mice were intraperitoneally injected with 10 million human peripheral blood mononuclear cells (PBMCs) as below:
Ex vivo treatment of PBMCs: 10 million human PBMCs from healthy donor #1 were ex-vivo treated with DMSO and […] of 6-(4-tert-butylphenoxy)pyridin-3-amine for 6 hours. Ex-vivo treated PBMCs were intraperitoneally injected into mice (10 million per mouse). 10 NSG mice were injected with DMSO pre-treated PBMCs and 10 NSG mice were injected with 6-(4-tert-butylphenoxy)pyridin-3-amine pre-treated PBMCS. Following PBMC injections mice were monitored for up to 42 days for symptoms of GvHD development as measured by standardized GvHD clinical score system. No in-vivo drug treatment was administered.
A cumulative GvHD clinical score was calculated by addition of scores for individual parameters (e.g. cumulative score=BWL+posture+activity+fur texture+skin integrity+paleness).

IL-17 [3] = experiment: Cytokine analysis in allogeneic bone marrow transplant (LEGENDplex): IL-17; format: in vivo, mouse; details: allo-BM+splenocyte transplanted mice, day 36, vs vehicle; FIG. 6
Method: (§1) Allogeneic Bone marrow transplant: Recipient Balb/c mice were irradiated twice 3.75Gy (T=0 and T=4 h) in an X-ray source irradiator before transplantation at T=8 h. Treatment with antibiotics (Nopil) and analgesic (Dafalgan) was supplemented to drinking water 4 days before injection. Irradiated recipient Balb/c mice were transplanted with 5 million T cell depleted bone marrow+1 million splenocytes. Allogeneic recipient animals were treated with vehicle or 6-(4-tert-butylphenoxy)pyridin-3-amine subcutaneously at 20 mg/kg for two days immediately after allo-BM transplant, given a 10 days treatment holiday to recover body weight loss due to whole body irradiation and then treatment continued at 20 mg/kg. […] Animals were monitored for symptoms of GvHD development (severe body weight loss, alopecia and diarrhea.
Cytokine analysis in allogeneic Bone marrow transplant: The recipient animals were bled on day 36 and blood plasma was extracted to determine inflammatory cytokine concentration (IFNγ, IL-6, IL-17a) by LEGENDplex™ multiplexed assay.

IL-10 mRNA = experiment: Quantitative RT-PCR of splenocyte mRNA after in vivo dosing: IL-10; set-up: species or system mouse; details: in vivo treated mice vs vehicle; p<0.05; FIG. 3
Method: FIG. 3: In vivo 6-(4-tert-butylphenoxy)pyridin-3-amine dosing leads to an upregulation of anti-inflammatory cytokine IL-10 mRNA in mouse spleen. […] Each bar represents the mean±SD (N=3 replicates). (*) p<0.05
In vivo treatment of mice and pharmacodynamic response: Mice experiments were performed in compliance with authorization to perform animal experiments (VD3323). Briefly, 6-8 weeks old wild type C57Bl6 mice were subcutaneously or intraperitoneally dosed with vehicle or compounds for different durations. Mice were sacrificed, spleens were harvested 24 hours post-last dosing. Splenocytes were analyzed for cell surface and intracellular markers expression using flow cytometry. RNA expression analyses were performed using quantitative real time PCR.

IL-6 = experiment: ELISA of supernatant from activated human PBMC cultures: IL-6; format: cell-based; details: control 0%
Method: (§2) Human PBMCs and mouse splenocyte in vitro stimulation and treatment: Human peripheral blood mononuclear cells (PBMCs) and mouse splenocytes from donors were stimulated in vitro with anti-CD3 and anti-CD28 antibodies. The stimulated cells were simultaneously treated with compounds for 96 hours. The T cells were profiled for different cell surface and intracellular markers and proliferation by flow cytometry.
(§3) ELISA assay: Supernatant from activated human PBMC cultures described above was separated from cells at the end of culture time. Key cytokines (IL-6, IFN-γ, IL-17) were quantified using sandwich ELISA reagents set (Diaclone) following manufacturer's instruction manual.

Treg cells = experiment: Treg expansion in activated mouse splenocytes in vitro; format: cell-based; details: mouse splenocytes stimulated with anti-CD3 and anti-CD28 for 96 hours; FIG. 1
Method: Mouse splenocytes were harvested and single cell suspension stimulated in vitro with anti-CD3 and anti-CD28 antibodies for 96 hours. Treatment with 6-(4-tert-butylphenoxy)pyridin-3-amine, during the same interval of time, caused an expansion of immunosuppressive regulatory T cells (Tregs). Each bar represents the mean±SD (N=3 replicates).
as §2
Flow cytometry analysis: Flow cytometry analysis was performed to quantify cell surface and intracellular markers expression and measure cell division index.
Viability staining: Cells were transferred into a 96 well conical bottom plate and washed with serum free PBS1×. Cells were incubated with Zombie NIR (Biolegend #423105)+FC block ([…]) for 20 minutes at 4° C. […]
FOXP3 nuclear staining: Cells were fixed and permeabilized with Foxp3 Transcription Factor Staining Buffer Set (ThermoFisher #00-5523) for 20 minutes at room temperature. […] Results are finally analysed with the software FlowJo v.10.7.1.

IFNG [4] = experiment: ELISA of supernatant from activated human PBMC cultures: IFNG; format: cell-based; details: control 0%
Method: as §2, §3

IL-17 [5] = experiment: ELISA of supernatant from activated human PBMC cultures: IL-17; format: cell-based; details: control 0%
Method: as §2, §3

[6] = tested on: irradiated Balb/c mice transplanted with TCD-BM + splenocytes from C57Bl6 mice (GvHD); experiment: Allogeneic bone marrow transplant GvHD model; format: in vivo, mouse
Method: as §1
Graft vs host disease (GvHD) is an example of alloimmune disease that develops following allo-hematopoetic stem cell transplant (allo-HSCT) in humans. The activity of 6-(4-tert-butylphenoxy)pyridin-3-amine and a calcineurin inhibitor Cyclosprin A was investigated in a mouse model of GvHD following allo-bone marrow transplant. In this model, T cell depleted bone marrow cells (TCD-BM)+splenocytes from C57Bl6 mice were transplanted into irradiated Balb/c mice.

[7] = PBMCs pre-treated ex-vivo, DMSO group 0.71

CC(C)(C)c1ccc(Oc2ccc(N)cn2)cc1 [6-(4-tert-butylphenoxy)pyridin-3-amine]
Percentage downregulation of IFNG in blood plasma (IFNG [1]): 90% (day 29 on treatment) | GvHD clinical score: Body weight loss ([2]; PBMCs pre-treated ex-vivo (6 hours), DMSO group 1.0): 0 | GvHD clinical score: Skin integrity ([2]; PBMCs pre-treated ex-vivo, DMSO group 0.14): 0 | GvHD clinical score: Fur texture ([2]; PBMCs pre-treated ex-vivo, DMSO group 0.57): 0.14 | GvHD clinical score: Activity score [2, 7]: 0.14 | GvHD clinical score: Paleness [2, 7]: 0 | GvHD clinical score: Posture [2, 7]: 0.14 | Cumulative GvHD score ([2]; sum of individual scores, DMSO group 3.84): decreased cumulative GvHD score significantly and 0.42 | IL-17 in blood plasma (IL-17 [3]): downregulation | IL-10 transcript in splenocytes (IL-10 mRNA): upregulation | Percentage downregulation of IL-6 (IL-6): 61% | expansion of Treg cells (Treg cells): expansion of Treg cells | Percentage downregulation of IFNG (IFNG [4]): 10% | Percentage downregulation of IL-17 (IL-17 [5]): 38% | prevention of GvHD development (in words) ([6]; allo-bone marrow transplant, compared with vehicle): prevents development of GvHD | treated animals that developed GvHD ([6]; allo-bone marrow transplant, 60% of vehicle treated animals died due to GvHD, FIG. 5): 20% | animals remained GvHD free ([6]; allogeneic bone marrow+splenocyte transplantation, vehicle 40%, FIG. 5): 80%
